One series deals with CD39 protein. The series can be described thus: CD39 protein expression in human CD8+ T cells (flow cytometry, Example 11). The series is classed as cell-based. The conditions noted are these: 5 μM, 5 days, anti-CD3. The method, then:
FIG. 12A-12C depict human CD8^+ T cells which were labelled with cell proliferation dye, activated with anti-CD3 and treated with 5 μM of the antisense oligonucleotide A04040H (black column) or the control oligonucleotide S6 (white column) for a total treatment time of 5 days. In the vehicle control (striped column), cells were activated with anti-CD3 only. Subsequently, 400 μM of ATP or vehicle were added to cells on day 3 and day 4 after start of oligonucleotide treatment. Furthermore, as additional control, the small molecular CD39-inhibitor ARL67156 trisodium salt was added at 20 μM to cells on day 4, for an incubation time of 24 h (checked column). On day 5 after start of oligonucleotide treatment, (FIG. 12A) CD39 protein expression, (FIG. 12B) proliferation and (FIG. 12C) absolute cell numbers of CD8^+ T cells were analyzed using Flow Cytometry. Depicted is the mean of triplicate wells+/−SD.
In cancer, ATP is released from tumor cells for example after cell death induced by chemotherapy or radiation therapy. Since the CD39-CD73 axis plays an important role for T cell function the effects of A04040H on T cell proliferation in the presence or absence of extracellular ATP were investigated. […] On day 5 after start of oligonucleotide treatment, CD39 protein expression, proliferation, and absolute cell numbers of CD8^+ T cells were analyzed using Flow Cytometry.
For orientation: A flow cytometer gives signals particle by particle.

A further series deals with T1, hCD39 (Homo sapiens, UniProt P49961).
T1 construct: endogenous in cells; host or cells: JIYOYE cells
T1 sequence (P49961 1-510): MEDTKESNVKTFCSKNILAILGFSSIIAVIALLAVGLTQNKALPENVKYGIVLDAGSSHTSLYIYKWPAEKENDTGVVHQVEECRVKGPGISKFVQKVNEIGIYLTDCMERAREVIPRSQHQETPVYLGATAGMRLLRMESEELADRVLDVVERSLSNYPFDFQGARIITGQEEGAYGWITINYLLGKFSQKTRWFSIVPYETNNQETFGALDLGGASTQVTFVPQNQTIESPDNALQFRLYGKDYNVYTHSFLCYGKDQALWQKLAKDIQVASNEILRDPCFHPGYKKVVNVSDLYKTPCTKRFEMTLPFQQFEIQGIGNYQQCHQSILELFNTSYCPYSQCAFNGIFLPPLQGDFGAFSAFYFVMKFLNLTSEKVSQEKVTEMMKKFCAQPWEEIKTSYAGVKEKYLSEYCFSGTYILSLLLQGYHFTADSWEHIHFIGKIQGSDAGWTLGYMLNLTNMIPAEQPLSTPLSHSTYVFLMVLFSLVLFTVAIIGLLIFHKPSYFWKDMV
The series can be described thus: ATP degradation in JIYOYE cells after hCD39 knockdown (ATP Bioluminescence Assay). The series is classed as cell-based. As to conditions: for Relative ATP levels in supernatants of JIYOYE cells 30 minutes after addition of ATP (vs. Medium control): 5 μM oligonucleotide 6 days or 20 μM ARL67156 1 h, 2 μM ATP added. The method, then:
FIG. 10A-10C depict effects of hCD39 knockdown on viability and ATP concentration in JIYOYE cells. JIYOYE cells were treated with the indicated antisense oligonucleotide A04040H (SEQ ID No.3) or neg1 for 6 days in total at 5 μM. Medium was replaced with fresh oligonucleotide-containing medium after 3 days and hCD39 protein knockdown efficacy was analyzed on day 6 by flow cytometry. Residual hCD39 expression and viability of oligonucleotide-treated cells is depicted compared to untreated cells (FIG. 10A-10B). After 6 days, 20 μM of the CD39 small molecular inhibitor ARL67156 trisodium salt was added to no ASO treated cells and incubated for 1 h at 37° C. Then, 2 μM of ATP was added to cells or cell culture medium without cells from each condition and ATP concentration of cell supernatants or cell culture medium was determined after 30 min using the ATP Bioluminescence Assay Kit (Roche) (FIG. 10C).
Adenosine is one major immunosuppressive molecule generated during ATP degradation by hCD39. ATP can be detected by an ATP Bioluminescence Assay (ATP Bioluminescence Assay Kit CLS II; Roche). JIYOYE cells were treated with 5 μM antisense oligonucleotide A04040H (SEQ ID No. 3) or the negative control oligonucleotide neg1 for 6 days (3+3). After 3 days, RPMI-1640 medium was replaced with fresh RPMI-1640 medium containing 5 μM of oligonucleotide. Protein knockdown efficacy (FIG. 10A) and viability (FIG. 10B) were analyzed after 6 days by flow cytometry. […] The same day, cells that were not treated with any antisense oligonucleotide were incubated for 1 hr at 37° C. with 20 μM of the CD39 small molecular inhibitor ARL67156 trisodium salt (TOCRIS). Then, 2 μM of ATP was added to cells or cell culture medium without cells derived from each condition and ATP concentration was measured in the cell supernatants or in cell culture medium after 30 min. […] Table 14 presents the effect of hCD39 knockdown on relative ATP levels in the cell culture supernatants of JIYOYE cells: […]

Another series concerns mCD39 mRNA. The series can be described thus: mCD39 mRNA knockdown efficacy screen in A20 cells (single dose, gymnotic delivery, QuantiGene Singleplex). The series is classed as cell-based, mouse. As to conditions: 10 μM, three days, normalized to HPRT1. The method, then: FIG. 14-1 and 14-2 show mCD39 mRNA knockdown efficacy of mCD39 antisense oligonucleotides in the murine cancer cell line A20 (mouse B cell lymphoma). A20 cells were treated with a single dose of 10 μM of the respective antisense oligonucleotide. As negative control, cells were treated with neg1, an antisense oligonucleotide having the sequence CGTTTAGGCTATGTACTT (SEQ ID NO:99). Residual mCD39 mRNA expression relative to untreated cells is depicted. Expression values were normalized to expression of the housekeeping gene HPRT1.
In order to analyze the efficacy of mCD39 antisense oligonucleotides with regard to the knockdown of mCD39 mRNA expression in a cancer cell line, A20 (mouse B cell lymphoma, ATCC) cells were treated with a single dose (concentration: 10 μM without addition of any transfection reagent; this process is called gymnotic delivery) of the respective antisense oligonucleotide as indicated in FIG. 14. As control, cells were treated with neg1, an antisense oligonucleotide having the sequence CGTTTAGGCTATGTACTT (SEQ ID NO:99). mCD39 and HPRT1 mRNA expression was analyzed after three days using the QuantiGene Singleplex assay (Affymetrix) and mCD39 expression values were normalized to HPRT1 expression values.

Setting [1] is: JIYOYE cells, 5 μM, 6 days, 2 μM ATP, 30 min.

l = locked nucleic acid (LNA); d = 2'-deoxy (DNA)

Take “+G*+T*+T*T*G*T*G*T*G*A*G*A*G*C*+T*+T (antisense GTTTGTGTGAGAGCTT; sugars from the 5' end l3 d11 l2, all phosphorothioate, methylation of C not given here) [A04040H]”: in the series on CD39 protein, the CD39 protein expression entry was “potently suppressed”. Besides, the “Relative ATP levels in supernatants of JIYOYE cells 30 minutes after addition of ATP (vs. Medium control)” value with hCD39 amounted to 0.76. Also, in the series with hCD39 (setting [1]), the “ATP concentration compared to cells treated with ARL67156” value worked out at 2 ×, the “ATP concentration compared to cells treated with neg 1” value is “about 4 ×” and the ATP degradation efficacy entry was “nearly abolished”.
As to “+C*+G*+T*T*T*A*G*G*C*T*A*T*G*T*A*+C*+T*+T (CGTTTAGGCTATGTACTT; chemistry not fully specified) [neg1, negative control antisense oligonucleotide not hybridizing with CD39, described in WO2014154843 A1, reference compound]”, in the series on mCD39 mRNA, the “Relative mCD39 mRNA expression (compared to non-treated cells)” value worked out at 0.67. The “Relative ATP levels in supernatants of JIYOYE cells 30 minutes after addition of ATP (vs. Medium control)” value in the series with hCD39 came out at 0.19.

The values are drawn from patent US11959083B2, “Immunosuppression-reverting oligonucleotides inhibiting the expression of CD39” (Secarna Pharmaceuticals GmbH & Co. KG, priority 2016, dated 2024).
